# Results taken from the SangsterLogP compilation.
logD (pH 5.0),SMILES,also measured
5.53,O=C(/C=C/c1ccccc1)Nc1cccc(NC(=O)c2cccc(Cl)c2)c1,
,COc1ccc(N(CC(=O)N[C@@H]2CCS(=O)(=O)C2)S(=O)(=O)c2ccc(Cl)c(Cl)c2)cc1,logD (pH 2.0): 3.32
,CCOC(=O)[C@H]1N=C(C2=C(O)c3ccccc3C2=O)[C@@H]2C(=O)N(N(C)c3ncc(C(F)(F)F)cc3Cl)C(=O)[C@@H]21,logD (pH 10.0): 4.38
,Cc1ccc(N[C@H]2O[C@@H](CO)[C@H](O)[C@@H](O)[C@H]2O)cc1Br,logD (pH 7.0): 2.28
2.84,CC[C@H](C)NC(=O)NC(C(F)(F)F)C(F)(F)F,
,COc1ccc([C@H]2C[C@@H](c3ccc(-c4ccccc4)cc3)Nc3ncnn32)cc1,logD (pH 7.3): 5.42
,CCOC(=O)C1=C(N)n2c(s/c(=C\c3ccc(C(=O)OC)cc3)c2=O)=C(C(=O)OC)C1c1ccc(C(=O)OC)cc1 (stereo unspecified),logD (pH 7.3): 6.95
,COc1cc([C@@H]2Nc3cc(C)c(C)cc3NC3=C2C(=O)CC(C)(C)C3)cc(OC)c1OC(C)=O,logD (pH 10.0): 4.21
4.18,Cc1ccc(N2C(=O)c3ccccc3N[C@H]2c2cccc([N+](=O)[O-])c2)cc1,
6.27,COc1ccccc1NC(=O)C1=C(C)NC(SCC(=O)Nc2ccc(C)c(Cl)c2)=C(C#N)[C@@H]1c1ccco1,
,CCCc1[nH]nc2c1[C@H](c1ccsc1C)C(C#N)=C(N)O2,logD (pH 10.5): 3.83
,C=CCOc1cccc([C@@H]2c3c(oc4ccccc4c3=O)C(=O)N2c2nnc(C)s2)c1,logD (pH 6.5): 4.52
4.03,O=C1c2ccccc2C(=O)N1/N=C/c1cc([N+](=O)[O-])ccc1Cl,
5.07,COc1cc2c(cc1OC)[C@H](COc1ccc3c(C)cc(=O)oc3c1)N(C(=O)C1CCCCC1)CC2,
1.16,O=C1CC[C@H]2CCCC[C@@]2(O)O1,
,CCN(CC)S(=O)(=O)c1ccc(C(=O)N2CCNC(=O)[C@H]2CC(=O)OC)cc1,logD (pH 2.0): 1.14
5.83,COc1ccc([C@@H]2[C@H]3C(=O)N(c4sc5c(c4C#N)CCCC5)C(=O)[C@@H]3ON2c2ccccc2C)cc1,
3.61,OCC#CC(O)(c1ccc(F)cc1)c1ccc(F)cc1,
,CN(C)S(=O)(=O)c1cccc(Cn2c(=O)c(=O)n(Cc3ccccc3)c3ccc(Cl)cc32)c1,logD (pH 2.0): 3.37
4.18,COc1ccc(C(=O)OCC(=O)c2cc(C)n(C[C@@H]3CCCO3)c2C)c(OC)c1,
4.24,C[C@@H]1CCC2[C@]3(C)COC(C)(C)O[C@H]3CC[C@]2(C)[C@@]12CCC1(COC(=O)C1)O2 (stereo partly specified),
,COc1cc(/C=C(\NC(=O)c2ccccc2)C(=O)Nc2cccc(CO)c2)ccc1OC(C)=O,logD (pH 6.5): 4.04

logD (pH 5.0),SMILES,also measured
2.48,C[C@@H]1CCCC[C@H]1NC(=O)COC(=O)C1=COCCO1,
3.12,Cc1c(CN(C)C(=O)[C@@H](C)n2nc(C(F)F)c(Br)c2C)cnn1C,
5.87,CC(C)[C@H]1O[C@H]2CCCC[C@H]2C2=CCCC[C@H]21,
5,CCOC(=O)CN1C(=O)[C@@H](OC(=O)c2ccccc2)[C@@H](OC(=O)c2ccccc2)C1=O,
4.59,O=C(/C=C/c1ccc2c(c1)OCO2)NCCCCNC(=O)/C=C/c1ccc2c(c1)OCO2,
,O=C(c1cccc(S(=O)(=O)N2CCOCC2)c1)N1CCN(c2cccc(Cl)c2)CC1,logD (pH 7.3): 4.34
,COc1ccc2c(c1)C(=O)N(Cc1ccco1)C(=O)/C2=C\Nc1c(C)n(C)n(-c2ccccc2)c1=O,logD (pH 10.0): 4.66
4.62,COc1ccc([C@@H]2C3=C(C[C@H](c4ccco4)CC3=O)Nc3ccccc3N2C(=O)C(F)(F)F)cc1,
,CCSCCOC(=O)C1=C(C)NC2=C(C(=O)C[C@@H](c3cccs3)C2)[C@@H]1c1ccc(C(=O)OC)cc1,logD (pH 10.0): 5.24
,CCSCCOC(=O)C1=C(C)NC2=C(C(=O)C[C@@H](c3cccs3)C2)[C@H]1c1ccc2c(c1)OCO2,logD (pH 10.0): 5
4.55,CCCN(CCC)S(=O)(=O)c1ccc(C(=O)N2CC[C@@H]3c4ccccc4C(=O)N3C2)cc1,
3.65,O=C(OCCN1C(=O)c2ccccc2C1=O)[C@@H]1C[C@H](O)CN1S(=O)(=O)c1ccc(Cl)cc1,
4.32,CS(=O)(=O)N(CC(=O)Nc1ccccc1C(=O)NCc1ccco1)c1ccc(Cl)cc1,
4.51,COc1cc([C@H]2C(C(=O)c3ccccc3)=C(N)N(c3ccccc3C(F)(F)F)C3=C2C(=O)CCC3)cc(OC)c1OC,
4.38,Cc1cc(C(=O)CN2C(=O)[C@@H]3CC=CC[C@H]3C2=O)c(C)n1Cc1ccc2c(c1)OCO2,
,CC[C@H]1CS/C(=N\c2cccc(C)c2)N1C(=O)CCN1C(=O)c2ccccc2C1=O,logD (pH 8.0): 4.96
4.41,O=C(NCc1ccccc1)/C(=C/c1ccc(Cl)cc1)NC(=O)c1ccccc1,
,COc1ccccc1N(CCOC(=O)[C@@H]1CC(=O)N(c2ccccc2)C1)C1=NS(=O)(=O)c2ccccc21,logD (pH 6.5): 2.5
4.55,COc1ccc([C@@H]2CC(=O)N(c3sc4c(c3C#N)CCCC4)C3=C2C(=O)CCC3)c(OC)c1,
,O=C1[C@@H]2C3c4ccccc4C(c4ccccc43)[C@@H]2C(=O)N1c1nccs1,logD (pH 10.0): 3.83
2.79,COc1ccc2c(c1)O[C@](O)(C(F)(F)F)CC2=O,
,CCOP(=O)(Cc1ccc(CP(=O)(OCC)OCC)o1)OCC,logD (pH 7.3): 3.25

logD (pH 5.0),SMILES,also measured
2.69,CCCCN1C(=O)N(C)[C@@H]2[C@H]1N(C)C(=O)N2CCCC,
4.64,CCNC(=O)/C(=C/c1cn(-c2ccccc2)nc1-c1cccs1)NC(=O)c1ccccc1,
4.93,CC[C@H](C(=O)N1CCCN(C(=O)[C@@H](CC)c2ccccc2)CC1)c1ccccc1,
4.95,CCN(C(=O)COC(=O)/C(=C/c1ccc(Cl)cc1)c1ccc(F)cc1)[C@@H]1CCS(=O)(=O)C1,
5.87,O=C1/C(=C/c2c(Sc3ccccc3)nc3ccccn3c2=O)SC(=S)N1C[C@H]1CCCO1,
2.78,Cc1noc(C)c1C(=O)O[C@@H](C)C(=O)Nc1ccc2c(c1)OCCO2,
4.74,CC(=O)C12c3ccccc3C(c3ccccc31)[C@H]1C(=O)N(c3ccc(C)c([N+](=O)[O-])c3)C(=O)[C@@H]12,
,O=C(COC(=O)/C=C/c1ccc(F)cc1)Nc1cc(C(F)(F)F)ccc1N1CCOCC1,logD (pH 2.0): 5.08
3.56,O=C(NC[C@@H]1CCCO1)c1sc2ccccc2c1Cl,
,CN1C(=O)N(C)C2(c3ccccc3)Nn3c(s/c(=C\c4ccc(Br)cc4)c3=O)=NC12c1ccccc1 (stereo unspecified),logD (pH 10.5): 5.72
,O=C(c1ccccc1)N1CCCC[C@@H](Sc2nnc3ccccn23)C1=O,logD (pH 10.5): 3.14
,CCOc1cc(/C=N/n2cnc3sc(C)c(C)c3c2=O)cc(Br)c1OCC(N)=O,logD (pH 10.5): 4.98
,C[C@H](NC1=NS(=O)(=O)c2ccccc21)C(=O)OCC(=O)/C=C1/N(C)c2ccccc2C1(C)C,logD (pH 2.0): 4.21
,Cc1cc(C)n(CCOC(=O)[C@H]2[C@H](C=C(Cl)Cl)C2(C)C)n1,logD (pH 10.5): 4.76
,OC[C@H]1CCCN(c2ncnc3scc(-c4ccccc4)c23)C1,logD (pH 8.0): 3.9
,CC[C@@H](SC1=Nc2ccccc2C2=N[C@@H](CC(C)C)C(=O)N12)C(=O)Nc1ccc2c(c1)OCO2,logD (pH 7.3): 4.85
,CCN(C(=O)CN1C(=O)[C@H]2CCCC[C@H]2C1=O)c1nnc(-c2ccc(Cl)cc2)s1,logD (pH 6.5): 4.91
4.17,COc1ccccc1[C@@H]1CC(=O)Nc2cc(C)c(C)cc21,
6.25,CC(=O)c1cccc(N2C(=O)[C@@H]3[C@H](C2=O)[C@@H]2C=C[C@H]3C2=C(c2ccc(C)cc2)c2ccc(C)cc2)c1,
,COC(=O)c1c(N[C@@H](NC(C)=O)C(Cl)(Cl)Cl)sc2c1CCCC2,logD (pH 8.0): 5.04
,COc1ccc(N2C(=O)C[C@@H](Sc3nc(C)cc(C)n3)C2=O)cc1OC,logD (pH 10.5): 2.95
,CCc1cccc(C)c1N(C(=O)Cn1c([C@@H](C)O)nc2ccccc21)[C@@H](C)COC,logD (pH 8.0): 4.48
